Converted amounts (≈) assume the structure as drawn.

The first assay deals with Septoria tritici (ATCC 26517). Put plainly: Minimum Inhibitory Concentration (MIC) (Septoria tritici), CLSI-based microdilution. Format: cell-based. The following applies: S. tritici ATCC 26517; 22° C. for seven days; 50% reduction in growth. How it is done:
C. Minimum Inhibitory Concentration (MIC) (Septoria tritici)
Compounds of the present disclosure were assessed for their ability to inhibit the growth of a common strain of the fungal plant pathogen Septoria tritici (ATCC 26517) using a procedure based on a Clinical and Laboratory Standards Institute (CLSI) microdilution assay protocol for filamentous fungi.
Stock solutions of the test compounds and standards were prepared in DMSO at 6400 μg/mL. Each stock solution was used to prepare a 2-fold dilution series ranging from 16 to 0.016 μg/mL (total of 11 compound concentrations) in RPMI-1640 (Roswell Park Memorial Institute) medium containing 3-(N-morpholino)propanesulfonic acid (MOPS) buffer and 2% DMSO. A 100 μL aliquot of the dilutions was added to columns 1 (16 μg/mL compound) through 11 (0.016 μg/mL compound) of a 96-well microtiter plate. This format was replicated in a second row of the microtiter plate. Thus, each microtiter plate could include 11 concentrations of four test or control compounds replicated twice. A 100 μL aliquot of RPMI-1640/MOPS/2% DMSO medium was added to column 12 (no compound control) of the microtiter plate.
A fresh culture of S. tritici was used to prepare a solution of approximately 5×10^4 colony-forming units per milliliter (cfu/mL) in RPMI/MOPS medium without DMSO. A 100 µL aliquot of this solution was added to all 96 wells in the microtiter plate. […] The assay plates were incubated at 22° C. for seven days in the dark without shaking.
In each case of Table 3 the Septoria rating scale is as follows: […]
On the technique in general: Broth dilution looks for growth in wells or tubes with falling amounts of substance.
As for `OC(Cn1cnnn1)(c1ccc(F)cc1F)C(F)(F)c1ccc(-c2ccc(Cl)nc2)cn1` (stereo not drawn) [30(+), 1-(6′-Chloro-[3,3′-bipyridin]-6-yl)-2-(2,4-difluorophenyl)-1,1-difluoro-3-(1H-tetrazol-1-yl)propan-2-ol], the “Septoria Rating (MIC)” value is reported as “B (>1.5-1.5)”.
Turning to `OC(Cn1cnnn1)(c1ccc(F)cc1F)C(F)(F)c1ccc(-c2ccc(F)nc2)cn1` (stereo not drawn) [31(+), 2-(2,4-Difluorophenyl)-1,1-difluoro-1-(6′-fluoro-[3,3′-bipyridin]-6-yl)-3-(1H-tetrazol-1-yl)propan-2-ol], the “Septoria Rating (MIC)” value is “A (≦0.5)”.

Still in this assay, the particulars now being: Zymoseptoria tritici, ATCC26517, 168 h, S. tritici ATCC 26517; 22° C. for seven days; 50% reduction in growth; read-out: Septoria Rating (MIC).
A word on the MIC: it is the lowest concentration that inhibits growth of the organism. With `OC(Cn1cnnn1)(c1ccc(F)cc1F)C(F)(F)c1cc(F)ccn1` (single isomer, unassigned) [ent-13, 2-(2,4-Difluorophenyl)-1,1-difluoro-1-(4-fluoropyridin-2-yl)-3-(1H-tetrazol-1-yl)propan-2-ol], the MIC was found to be 1.5 µg/mL (≈ 4.04 µM).
Take `N#C/C=C/c1ccc(C(F)(F)C(O)(Cn2cnnn2)c2ccc(F)cc2F)nc1` (stereo not drawn) [Compound 3, (E)-3-(6-(2-(2,4-Difluorophenyl)-1,1-difluoro-2-hydroxy-3-(1H-tetrazol-1-yl)propyl)pyridin-3-yl)acrylonitrile]: the MIC was found to be 1.5 µg/mL (≈ 3.71 µM).
`CCOC(=O)CCc1ccc(C(F)(F)C(O)(Cn2cnnn2)c2ccc(F)cc2F)nc1` (stereo not drawn) [Compound 5, Ethyl 3-(6-(2-(2,4-difluorophenyl)-1,1-difluoro-2-hydroxy-3-(1H-tetrazol-1-yl)propyl)pyridin-3-yl)propanoate]: the MIC is no more than 0.5 µg/mL.
Consider `CC(=O)/C=C/c1ccc(C(F)(F)C(O)(Cn2cnnn2)c2ccc(F)cc2F)nc1` (stereo not drawn) [Compound 7, (E)-4-(6-(2-(2,4-Difluorophenyl)-1,1-difluoro-2-hydroxy-3-(1H-tetrazol-1-yl)propyl)pyridin-3-yl)but-3-en-2-one], for which the minimal inhibitory concentration (MIC) lay in the range of 1.5 to 4 µg/mL (≈ 3.56 to 9.49 µM).
As to `CC(=O)CCc1ccc(C(F)(F)C(O)(Cn2cnnn2)c2ccc(F)cc2F)nc1` (stereo not drawn) [Compound 8, 4-(6-(2-(2,4-Difluorophenyl)-1,1-difluoro-2-hydroxy-3-(1H-tetrazol-1-yl)propyl)pyridin-3-yl)butan-2-one], the MIC came to 1.5 µg/mL (≈ 3.54 µM).
On to `OC(Cn1cnnn1)(c1ccc(F)cc1F)C(F)(F)c1ccc(-n2nccn2)cn1` (stereo not drawn) [Compound 9, 1-(5-(2H-1,2,3-Triazol-2-yl)pyridin-2-yl)-2-(2,4-difluorophenyl)-1,1-difluoro-3-(1H-tetrazol-1-yl)propan-2-ol], for which the minimal inhibitory concentration (MIC) lay in the range of 1.5 to 4 µg/mL (≈ 3.57 to 9.52 µM).
Turning to `OC(Cn1cnnn1)(c1ccc(Cl)cc1F)C(F)(F)c1ccccn1` (stereo not drawn) [Compound 11, 2-(4-Chloro-2-fluorophenyl)-1,1-difluoro-1-(pyridin-2-yl)-3-(1H-tetrazol-1-yl)propan-2-ol], the minimal inhibitory concentration (MIC) is 1.5 to 4 µg/mL (≈ 4.06 to 10.8 µM).
Turning to `OC(Cn1cnnn1)(c1ccc(F)cc1F)C(F)(F)c1ccc(Cl)cn1` (stereo not drawn) [Compound 12, 1-(5-Chloropyridin-2-yl)-2-(2,4-difluorophenyl)-1,1-difluoro-3-(1H-tetrazol-1-yl)propan-2-ol], the minimal inhibitory concentration (MIC) worked out at 1.5 µg/mL (≈ 3.87 µM).
For the compound `OC(Cn1cnnn1)(c1ccc(F)cc1F)C(F)(F)c1cc(Cl)ccn1` (stereo not drawn) [Compound 14, 1-(4-Chloropyridin-2-yl)-2-(2,4-difluorophenyl)-1,1-difluoro-3-(1H-tetrazol-1-yl)propan-2-ol], the minimal inhibitory concentration (MIC) was 1.5 to 4 µg/mL (≈ 3.87 to 10.3 µM).
As for `OC(Cn1cnnn1)(c1ccc(F)cc1F)C(F)(F)c1ccc(C(F)(F)F)cn1` (stereo not drawn) [Compound 19, 2-(2,4-Difluorophenyl)-1,1-difluoro-3-(1H-tetrazol-1-yl)-1-(5-(trifluoromethyl)pyridin-2-yl)propan-2-ol], the minimal inhibitory concentration (MIC) was in the range of 1.5 to 4 µg/mL (≈ 3.56 to 9.49 µM).
On to `OC(Cn1cnnn1)(c1ccc(F)cc1F)C(F)(F)c1cccc(Br)n1` (stereo not drawn) [Compound 20, 1-(6-Bromopyridin-2-yl)-2-(2,4-difluorophenyl)-1,1-difluoro-3-(1H-tetrazol-1-yl)propan-2-ol], for which the minimum inhibitory concentration (MIC) lay within 1.5 to 4 µg/mL (≈ 3.47 to 9.26 µM).
For the compound `OC(Cn1cnnn1)(c1cc(F)ccc1F)C(F)(F)c1ccc(Br)cn1` (stereo not drawn) [Compound 21, 1-(5-Bromopyridin-2-yl)-2-(2,5-difluorophenyl)-1,1-difluoro-3-(1H-tetrazol-1-yl)propan-2-ol], the minimum inhibitory concentration (MIC) was greater than 4 µg/mL.
Regarding `OC(Cn1cnnn1)(c1ccc(C(F)(F)F)cc1F)C(F)(F)c1ccc(Br)cn1` (stereo not drawn) [Compound 23, 1-(5-Bromopyridin-2-yl)-1,1-difluoro-2-(2-fluoro-4-(trifluoromethyl)phenyl)-3-(1H-tetrazol-1-yl)propan-2-ol], the MIC fell in the range of 1.5 to 4 µg/mL (≈ 3.11 to 8.3 µM).
Still for that read-out and setting: in the case of `OC(Cn1cnnn1)(c1ccc(F)cc1F)C(F)(F)c1cc(Br)ccn1` (stereo not drawn) [Compound 24, 1-(4-Bromopyridin-2-yl)-2-(2,4-difluorophenyl)-1,1-difluoro-3-(1H-tetrazol-1-yl)propan-2-ol] it was 1.5 to 4 µg/mL (≈ 3.47 to 9.26 µM); in that of `OC(Cn1cnnn1)(c1ccc(F)cc1F)C(F)(F)c1ccc(-c2ccc(C(F)(F)F)nc2)cn1` (stereo not drawn) [Compound 35, 2-(2,4-Difluorophenyl)-1,1-difluoro-3-(1H-tetrazol-1-yl)-1-(6′-(trifluoromethyl)-[3,3′-bipyridin]-6-yl)propan-2-ol], 1.5 to 4 µg/mL (≈ 3.01 to 8.03 µM); in that of `COc1ncc(-c2ccc(C(F)(F)C(O)(Cn3cnnn3)c3ccc(F)cc3F)nc2)cn1` (stereo not drawn) [Compound 37, 2-(2,4-Difluorophenyl)-1,1-difluoro-1-(5-(2-methoxypyrimidin-5-yl)pyridin-2-yl)-3-(1H-tetrazol-1-yl)propan-2-ol], 1.5 to 4 µg/mL (≈ 3.25 to 8.67 µM).
`COC(=O)CSc1ccc(C(F)(F)C(O)(Cn2cnnn2)c2ccc(F)cc2F)nc1` (stereo not drawn) [Compound 41, Methyl 2-((6-(2-(2,4-difluorophenyl)-1,1-difluoro-2-hydroxy-3-(1H-tetrazol-1-yl)propyl)pyridin-3-yl)thio)acetate]: the minimal inhibitory concentration (MIC) was greater than 4 µg/mL.
Consider `OC(Cn1cnnn1)(c1ccc(F)cc1F)C(F)(F)c1ccc(/C=C/Cn2cnnn2)cn1` (stereo not drawn) [Compound 42, (E)-1-(5-(3-(1H-Tetrazol-1-yl)prop-1-en-1-yl)pyridin-2-yl)-2-(2,4-difluorophenyl)-1,1-difluoro-3-(1H-tetrazol-1-yl)propan-2-ol], for which the MIC is greater than 4 µg/mL.
Turning to `OC/C=C/c1ccc(C(F)(F)C(O)(Cn2cnnn2)c2ccc(F)cc2F)nc1` (stereo not drawn) [Compound 43, (E)-3-(6-(2-(2,4-Difluorophenyl)-1,1-difluoro-2-hydroxy-3-(1H-tetrazol-1-yl)propyl)pyridin-3-yl)prop-2-en-1-ol], the minimal inhibitory concentration (MIC) lay within 1.5 to 4 µg/mL (≈ 3.66 to 9.77 µM).
In the case of `OCCCc1ccc(C(F)(F)C(O)(Cn2cnnn2)c2ccc(F)cc2F)nc1` (stereo not drawn) [Compound 44, 3-(6-(2-(2,4-Difluorophenyl)-1,1-difluoro-2-hydroxy-3-(1H-tetrazol-1-yl)propyl)pyridin-3-yl)propan-1-ol], the minimum inhibitory concentration (MIC) is 1.5 to 4 µg/mL (≈ 3.65 to 9.72 µM).
For the compound `CC(O)/C=C/c1ccc(C(F)(F)C(O)(Cn2cnnn2)c2ccc(F)cc2F)nc1` (stereo not drawn) [Compound 46, (E)-4-(6-(2-(2,4-Difluorophenyl)-1,1-difluoro-2-hydroxy-3-(1H-tetrazol-1-yl)propyl)pyridin-3-yl)but-3-en-2-ol], the minimal inhibitory concentration (MIC) was in the range of 1.5 to 4 µg/mL (≈ 3.54 to 9.45 µM).
In the case of `CC(O)CCc1ccc(C(F)(F)C(O)(Cn2cnnn2)c2ccc(F)cc2F)nc1` (stereo not drawn) [Compound 47, 4-(6-(2-(2,4-Difluorophenyl)-1,1-difluoro-2-hydroxy-3-(1H-tetrazol-1-yl)propyl)pyridin-3-yl)butan-2-ol], the minimum inhibitory concentration (MIC) lay within 1.5 to 4 µg/mL (≈ 3.53 to 9.4 µM).
Take `COC/C=C/c1ccc(C(F)(F)C(O)(Cn2cnnn2)c2ccc(F)cc2F)nc1` (stereo not drawn) [Compound 48, (E)-2-(2,4-Difluorophenyl)-1,1-difluoro-1-(5-(3-methoxyprop-1-en-1-yl)pyridin-2-yl)-3-(1H-tetrazol-1-yl)propan-2-ol]: the MIC is 1.5 µg/mL (≈ 3.54 µM).
As to `COC/C=C\c1ccc(C(F)(F)C(O)(Cn2cnnn2)c2ccc(F)cc2F)nc1` (stereo not drawn) [Compound 49, (Z)-2-(2,4-Difluorophenyl)-1,1-difluoro-1-(5-(3-methoxyprop-1-en-1-yl)pyridin-2-yl)-3-(1H-tetrazol-1-yl)propan-2-ol], the minimal inhibitory concentration (MIC) was no more than 0.5 µg/mL.
Same read-out and setting: in the case of `COCCCc1ccc(C(F)(F)C(O)(Cn2cnnn2)c2ccc(F)cc2F)nc1` (stereo not drawn) [Compound 50, 2-(2,4-Difluorophenyl)-1,1-difluoro-1-(5-(3-methoxypropyl)pyridin-2-yl)-3-(1H-tetrazol-1-yl)propan-2-ol] it was 1.5 µg/mL (≈ 3.53 µM).
As to `CC(C)OCCCc1ccc(C(F)(F)C(O)(Cn2cnnn2)c2ccc(F)cc2F)nc1` (stereo not drawn) [Compound 55, 2-(2,4-Difluorophenyl)-1,1-difluoro-1-(5-(3-isopropoxypropyl)pyridin-2-yl)-3-(1H-tetrazol-1-yl)propan-2-ol], the MIC was no more than 0.5 µg/mL.
Regarding `OC(c1ccc(C(F)(F)C(O)(Cn2cnnn2)c2ccc(F)cc2F)nc1)C(F)(F)F` (stereo not drawn) [Compound 56, (2-(2,4-Difluorophenyl)-1,1-difluoro-3-(1H-tetrazol-1-yl)-1-(5-(2,2,2-trifluoro-1-hydroxyethyl)pyridin-2-yl)propan-2-ol)], the MIC is greater than 4 µg/mL.
The same measure, in the same setting: the result for `OC(Cn1cnnn1)(c1ccc(F)cc1F)C(F)(F)c1ccc(-c2cnc(Cl)nc2)cn1` (stereo not drawn) [Compound 57, 1-(5-(2-Chloropyrimidin-5-yl)pyridin-2-yl)-2-(2,4-difluorophenyl)-1,1-difluoro-3-(1H-tetrazol-1-yl)propan-2-ol] reads greater than 4 µg/mL.
